{
  "source": "paper PMC8563752",
  "about": "“An oxidative metabolic pathway of 4-deoxy-L-erythro-5-hexoseulose uronic acid (DEHU) from alginate in an alginate-assimilating bacterium” (Communications Biology, 2021)",
  "key": {"recFlRed [1]": {"system": "T1, recFlRed", "T1 construct": "gene FlRed; native 27 kDa on SDS-PAGE, about 102 kDa on gel filtration, tetramer", "test": "NADPH formation by absorbance at […] nm, Michaelis-Menten fit", "assay_type": "biochemical, Flavobacterium sp. UMI-01", "conditions": "oxidase direction; 5 mM DEHU, 0.15 M KCl, 10 mM sodium phosphate pH 7.4, 20 °C"}, "recFlDet": {"target": "T2, recFlDet (Flavobacterium sp. UMI-01, UniProt A0A6S6B272)", "T2 construct": "full length 237 residues (25,697 Da), C-terminal His-tag (27,394 Da), E. coli BL21(DE3); native tetra- or pentamer; N-terminus […]", "T2 sequence (A0A6S6B272 1-237)": "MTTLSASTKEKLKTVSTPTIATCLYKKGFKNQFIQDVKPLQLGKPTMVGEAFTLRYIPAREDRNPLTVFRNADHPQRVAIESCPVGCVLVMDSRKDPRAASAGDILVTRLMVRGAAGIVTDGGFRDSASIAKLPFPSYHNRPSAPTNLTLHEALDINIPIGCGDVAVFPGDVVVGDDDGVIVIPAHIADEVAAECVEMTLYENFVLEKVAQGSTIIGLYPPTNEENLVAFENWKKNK", "test": "TBA method (decrease at […] nm), TLC, ESI-MS of product", "assay_type": "biochemical", "conditions": "[…] potassium phosphate pH […] KCl, […] MgCl2, […] °C"}, "recFlRed [2]": {"system": "T1, recFlRed", "test": "coenzyme consumption by absorbance at […] nm, Michaelis-Menten fit", "assay_type": "biochemical, Flavobacterium sp. UMI-01", "conditions": "reductase direction; 5 mM DEHU, 0.15 M KCl, 10 mM sodium phosphate pH 7.4, 20 °C"}, "recFlDeg [3]": {"target": "T3, recFlDeg (Flavobacterium sp. UMI-01, UniProt A0A6S6ASF6)", "T3 construct": "full length, His-tag, E. coli BL21(DE3); calculated mass 57,142 Da; Glu251 and Cys288 conserved", "T3 sequence (A0A6S6ASF6 1-515)": "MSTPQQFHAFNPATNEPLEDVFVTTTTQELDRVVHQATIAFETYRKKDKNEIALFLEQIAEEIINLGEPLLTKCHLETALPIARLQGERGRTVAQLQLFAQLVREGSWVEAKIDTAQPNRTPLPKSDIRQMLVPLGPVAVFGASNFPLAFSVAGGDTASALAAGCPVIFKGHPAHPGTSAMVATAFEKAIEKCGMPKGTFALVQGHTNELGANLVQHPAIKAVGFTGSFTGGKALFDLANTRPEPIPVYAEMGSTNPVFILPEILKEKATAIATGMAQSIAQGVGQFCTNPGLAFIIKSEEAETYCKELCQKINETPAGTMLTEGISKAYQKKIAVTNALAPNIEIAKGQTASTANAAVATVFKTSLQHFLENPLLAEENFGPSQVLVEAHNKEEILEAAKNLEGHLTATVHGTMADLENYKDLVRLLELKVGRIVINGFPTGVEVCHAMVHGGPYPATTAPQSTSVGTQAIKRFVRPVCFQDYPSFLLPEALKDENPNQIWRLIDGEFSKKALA", "test": "NADH formation at […] nm; TLC, ESI-MS and NMR of product", "assay_type": "biochemical", "conditions": "NAD+, […] potassium phosphate pH […] KCl, […] MgCl2, […] °C"}, "recFlDeg [4]": {"target": "T3, recFlDeg", "test": "NADH formation at […] nm", "assay_type": "biochemical", "conditions": "[…] alpha-KGSA, […] potassium phosphate pH […] KCl, […] MgCl2, […] °C"}, "recFlRed [5]": {"system": "T1, recFlRed", "test": "NADH formation by absorbance at […] nm, Michaelis-Menten fit", "assay_type": "biochemical, Flavobacterium sp. UMI-01", "conditions": "oxidase direction; 5 mM DEHU, 0.15 M KCl, 10 mM sodium phosphate pH 7.4, 20 °C"}, "recFlRed [6]": {"system": "T1, recFlRed", "test": "NADH consumption by absorbance at […] nm, Michaelis-Menten fit", "assay_type": "biochemical, Flavobacterium sp. UMI-01", "conditions": "reductase direction; 0.2 mM NADH, 0.15 M KCl, 10 mM sodium phosphate pH 7.4, 20 °C"}},
  "data": [
    {"smiles": "NC(=O)c1ccc[n+]([C@@H]2O[C@H](COP(=O)(O)OP(=O)(O)OC[C@H]3O[C@@H](n4cnc5c(N)ncnc54)[C@H](OP(=O)(O)O)[C@@H]3O)[C@@H](O)[C@H]2O)c1", "note": "[NADP^+]", "values": [
      {"measurement": "Km", "setting": "recFlRed [1]", "result": "1400 ± 200", "unit": "µM"}
    ]},
    {"smiles": "O=C(O)C(=O)C[C@H](O)[C@H](O)C(=O)O", "note": "[KDGR]", "values": [
      {"measurement": "TBA method (decrease at 548 nm), TLC, ESI-MS of product", "setting": "recFlDet", "result": "KDGR was determined to be the sole α-keto acid recognized by recFlDet"}
    ]},
    {"smiles": "NC(=O)C1=CN([C@@H]2O[C@H](COP(=O)(O)OP(=O)(O)OC[C@H]3O[C@@H](n4cnc5c(N)ncnc54)[C@H](OP(=O)(O)O)[C@@H]3O)[C@@H](O)[C@H]2O)C=CC1", "note": "[NADPH]", "values": [
      {"measurement": "Km", "setting": "recFlRed [2]", "result": "980 ± 100", "unit": "µM"}
    ]},
    {"smiles": "NC(=O)C1=CN([C@@H]2O[C@H](COP(=O)(O)OP(=O)(O)OC[C@H]3O[C@@H](n4cnc5c(N)ncnc54)[C@H](O)[C@@H]3O)[C@@H](O)[C@H]2O)C=CC1", "note": "[NADH]", "values": [
      {"measurement": "Km", "setting": "recFlRed [2]", "result": "37 ± 2", "unit": "µM"}
    ]},
    {"smiles": "O=CCCC(=O)C(=O)O", "note": "[α-KGSA]", "values": [
      {"measurement": "NADH formation at 340 nm; TLC, ESI-MS and NMR of product", "setting": "recFlDeg [3]", "result": "FlDeg is the enzyme catalyzing the oxidation of the aldehyde group of α-KGSA"}
    ]},
    {"smiles": "NC(=O)c1ccc[n+]([C@@H]2O[C@H](COP(=O)(O)OP(=O)(O)OC[C@H]3O[C@@H](n4cnc5c(N)ncnc54)[C@H](O)[C@@H]3O)[C@@H](O)[C@H]2O)c1", "note": "[NAD^+]", "values": [
      {"measurement": "NADH formation at 340 nm", "setting": "recFlDeg [4]", "result": "recFlDeg preferred NAD^+ to NADP^+"},
      {"measurement": "Km", "setting": "recFlRed [5]", "result": "98 ± 10", "unit": "µM"}
    ]},
    {"smiles": "O=C[C@@H](O)[C@@H](O)CC(=O)C(=O)O", "note": "[DEHU]", "values": [
      {"measurement": "Km", "setting": "recFlRed [6]", "result": "2600 ± 100", "unit": "µM"}
    ]}
  ]
}
